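Assay format: 96-well plates, 48-hour exposure. Abbreviation: GI50, concentration required for 50% inhibition of growth. TGI marks complete inhibition of growth.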
What was measured:
Assay in all cases: growth of human tumour cells (NCI), 48 h
[1] = tested on: OVCAR-3 ovarian
[2] = tested on: HOP-92 NSCLC
[3] = tested on: ACHN renal
[4] = tested on: UACC-62 melanoma
[5] = tested on: 786-0 renal
[6] = tested on: DU-145 prostate
[7] = tested on: MCF7 breast
[8] = tested on: SR leukemia
[9] = tested on: HS 578T breast
[10] = tested on: SF-539 CNS
[11] = tested on: COLO 205 colon
[12] = tested on: MOLT-4 leukemia
[13] = tested on: LOX IMVI melanoma
[14] = tested on: K-562 leukemia
[15] = tested on: SNB-75 CNS
[16] = tested on: OVCAR-8 ovarian
[17] = tested on: MDA-MB-435
[18] = tested on: HCT-116 colon
[19] = tested on: KM12 colon
[20] = tested on: HOP-62 NSCLC
[21] = tested on: BT-549 breast
[22] = tested on: M14 melanoma
[23] = tested on: SN12C renal
[24] = tested on: PC-3 prostate
[25] = tested on: HL-60(TB) leukemia
[26] = tested on: HCT-15 colon
[27] = tested on: MDA-MB-231 breast
[28] = tested on: SF-268 CNS
[29] = tested on: SK-MEL-2 melanoma
[30] = tested on: TK-10 renal
[31] = tested on: CAKI-1 renal
[32] = tested on: SF-295 CNS
[33] = tested on: NCI-H460 lung
[34] = tested on: T-47D breast
[35] = tested on: SW-620 colon
[36] = tested on: SNB-19 CNS
[37] = tested on: UO-31 renal
[38] = tested on: SK-MEL-5 melanoma
[39] = tested on: A549 NSCLC
[40] = tested on: SK-MEL-28 melanoma
[41] = tested on: CCRF-CEM leukemia
[42] = tested on: EKVX NSCLC
[43] = tested on: A498 renal
[44] = tested on: SK-OV-3 ovarian
[45] = tested on: NCI-H522 lung
[46] = tested on: RXF 393 renal
[47] = tested on: UACC-257 melanoma
[48] = tested on: RPMI-8226 leukemia
[49] = tested on: IGROV1 ovarian
[50] = tested on: U251 CNS

SMILES: CC1=C(C(=O)Nc2ccc(F)c(Cl)c2)C(c2cccc(Cl)c2)NC(=S)N1 (stereo not given)
- GI50 [1]: 13.9 µM
- TGI [1]: 33.6 µM
- GI50 [2]: 32.1 µM
- TGI [2]: > 50 µM
- GI50 [3]: 3.61 µM
- TGI [3]: 14.4 µM
- GI50 [4]: 3.93 µM
- TGI [4]: 12.5 µM
- GI50 [5]: 1.85 µM
- TGI [5]: 8.4 µM
- GI50 [6]: 17.3 µM
- TGI [6]: > 50 µM
- GI50 [7]: 47.6 µM
- TGI [7]: > 50 µM
- GI50 [8]: 15.4 µM
- TGI [8]: 47.8 µM
- GI50 [9]: 26.4 µM
- TGI [9]: > 50 µM
- GI50 [10]: > 50 µM
- TGI [10]: > 50 µM
- GI50 [11]: 4.22 µM
- TGI [11]: > 50 µM
- GI50 [12]: 45.1 µM
- TGI [12]: > 50 µM
- GI50 [13]: 1.44 µM
- TGI [13]: 6.76 µM
- GI50 [14]: 13.6 µM
- TGI [14]: 28.8 µM
- GI50 [15]: 6.36 µM
- TGI [15]: 21 µM
- GI50 [16]: 17.1 µM
- TGI [16]: > 50 µM
- GI50 [17]: 11.1 µM
- TGI [17]: 32.4 µM
- GI50 [18]: 2.3 µM
- TGI [18]: 11.3 µM
- GI50 [19]: 1.34 µM
- TGI [19]: 12.6 µM
- GI50 [20]: 7.83 µM
- TGI [20]: 18.9 µM
- GI50 [21]: 10.4 µM
- TGI [21]: 28.1 µM
- GI50 [22]: 9.02 µM
- TGI [22]: 23.4 µM
- GI50 [23]: 0.00746 µM
- TGI [23]: 2.51 µM
- GI50 [24]: 16.1 µM
- TGI [24]: > 50 µM
- GI50 [25]: 16.3 µM
- TGI [25]: > 50 µM
- GI50 [26]: 10.2 µM
- TGI [26]: > 50 µM
- GI50 [27]: 7.36 µM
- TGI [27]: 17.4 µM
- GI50 [28]: 10.1 µM
- TGI [28]: 25.9 µM
- GI50 [29]: 8.4 µM
- TGI [29]: 20.5 µM
- GI50 [30]: 9.01 µM
- TGI [30]: 45.5 µM
- GI50 [31]: > 50 µM
- TGI [31]: > 50 µM
- GI50 [32]: 6.28 µM
- TGI [32]: > 50 µM
- GI50 [33]: 23.9 µM
- TGI [33]: > 50 µM
- GI50 [34]: 42.5 µM
- TGI [34]: > 50 µM
- GI50 [35]: > 50 µM
- TGI [35]: > 50 µM
- GI50 [36]: 26.7 µM
- TGI [36]: > 50 µM
- GI50 [37]: 3.67 µM
- TGI [37]: 14.6 µM
- GI50 [38]: 10 µM
- TGI [38]: 20.2 µM
- GI50 [39]: 12.7 µM
- TGI [39]: 41.9 µM
- GI50 [40]: 10.2 µM
- TGI [40]: 28 µM
- GI50 [41]: 36.7 µM
- TGI [41]: > 50 µM
- GI50 [42]: 14.6 µM
- TGI [42]: 38.6 µM
- GI50 [43]: 7.3 µM
- TGI [43]: 15.7 µM
- GI50 [44]: 5.26 µM
- TGI [44]: 26.6 µM
- GI50 [45]: 2.13 µM
- TGI [45]: 17.3 µM
- GI50 [46]: 1.1 µM
- TGI [46]: 3.24 µM
- GI50 [47]: 10.1 µM
- TGI [47]: 23.5 µM
- GI50 [48]: 15.3 µM
- TGI [48]: > 50 µM
- GI50 [49]: 10.3 µM
- TGI [49]: 39.2 µM
- GI50 [50]: 6.84 µM
- TGI [50]: 18.8 µM
